Measurements from patent US20240279202A1 (NURIX THERAPEUTICS, INC., priority 2021, published 2024).

Molecular target: T1, ITK (Mus musculus, UniProt Q03526)
T1 construct: mice were sacrificed and splenocytes were isolated and used to prepare protein lysates; from tissue; host or cells: mouse splenocytes (spleen) after oral dosing
T1 sequence (Q03526 1-625): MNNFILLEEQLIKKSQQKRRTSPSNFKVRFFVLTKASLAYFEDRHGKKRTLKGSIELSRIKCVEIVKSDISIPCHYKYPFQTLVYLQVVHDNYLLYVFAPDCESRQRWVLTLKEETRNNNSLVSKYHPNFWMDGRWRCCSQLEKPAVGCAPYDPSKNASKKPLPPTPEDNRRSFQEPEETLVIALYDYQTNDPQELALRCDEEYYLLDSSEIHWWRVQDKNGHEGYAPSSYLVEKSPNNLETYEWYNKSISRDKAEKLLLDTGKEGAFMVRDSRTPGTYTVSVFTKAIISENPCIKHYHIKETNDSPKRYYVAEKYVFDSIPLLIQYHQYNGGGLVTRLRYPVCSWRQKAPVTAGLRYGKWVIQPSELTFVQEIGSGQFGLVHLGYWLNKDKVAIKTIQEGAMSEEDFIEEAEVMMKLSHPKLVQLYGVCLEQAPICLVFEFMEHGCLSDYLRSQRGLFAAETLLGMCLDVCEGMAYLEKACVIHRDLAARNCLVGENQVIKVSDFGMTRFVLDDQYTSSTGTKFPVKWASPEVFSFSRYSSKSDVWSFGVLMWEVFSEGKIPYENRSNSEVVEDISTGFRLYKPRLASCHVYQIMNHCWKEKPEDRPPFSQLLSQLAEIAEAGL
Experiment: Mouse PD assay for ITK degradation (Western blot, splenocytes after oral administration)
Assay type: in vivo
Conditions: for ITK degradation in vivo at 6 hours (FIG. 3A, FIG. 4A) / ITK degradation in vivo at 24 hours (FIG. 3A, FIG. 4A): mice, oral, splenocytes, Western blot; for ITK (%) 90 mpk PO, 6 h: percent ITK remaining in mouse splenocytes relative to vehicle
Method: Compounds 1, 3, 7, and 42 were formulated and administered at 90 mg/kg to mice by oral gavage (PO). Blood was collected at defined time points (after 1, 2, and 6 hours) after compounds administration to determine PK parameters. Concentration increased through 6 hours. Six hours later mice were sacrificed and splenocytes were isolated and used to prepare protein lysates. Total protein levels were determined in the lysates using the BCA assay according to standard methods. Equal amounts of protein were then analyzed by Western blot to determine the level of ITK expression in each sample. ITK band intensities were measured using Alpha View software and the percent of ITK remaining in each test animal was determined relative to the mean of ITK levels in vehicle control samples.
After 6 hours, splenocytes cells were harvested. ITK was evaluated by Western blotting.
Compounds 43, 4, 5, 10, 11, 12, 44, 14, 3, and 13 were administered to mice orally. After 6 hours, splenocytes cells were harvested. ITK was evaluated by Western blotting. Media was removed and cell pellets were lysed in 100 uL lysis buffer (RIPA buffer (Fisher, PI89901), cOmplete Mini EDTA-free protease inhibitor (Sigma 11836170001), Protease Inhibitor Cocktail (Sigma, P2714), Phosphatase Inhibitor Cocktail 2 and 3 (Sigma, P5726 and P0044), Benzonase (Sigma, E1014)). Cells were lysed overnight at −20° C. Following thaw, cells were centrifuged for 10 min at 13000 rpm, then transferred to new tube. Protein levels were determined by BCA Assay performed according to manufacturer's protocol (EMID Millipore, cat. no. 71285-3). Samples were combined with (4×) LDS Sample Buffer and (10×) Reducing Agent and H2O to equally load 20 ug protein per lane of a 26-well NuPAGE 4-12% Bis-Tris protein gel (1.0 mm, Thermo cat. no. NP0326). Samples were separated by running gels at constant 150 V in NuPAGE MES SDS Running Buffer. Following electrophoresis, proteins were transferred to nitrocellulose membranes using an iBlot Gel Transfer Device and iBlot Gel Transfer Stacks (Thermo cat. no. IB21001 and IB301001) and transfer method P3 (20V for 7 min). Membranes were blocked for 1 hr in 5% milk solution (TBS (0.2% Tween-20)). Following blocking, membranes were incubated with primary antibody (1:1000 CST ITK (2F12) #2380) overnight at 4° C. with gentle shaking. Blots were washed 2× in TBS (0.2% Tween-20), 30 min per wash. Following washes, blots were incubated in secondary HRP-conjugated antibody (Promega anti-Mouse IgG (H+L) HRP cat. no. W4021), 1:5000 in 5% milk solution (TBS (0.2% Tween-20)), for 1 hr at room temperature with gentle shaking. Blots were washed 2× in TBS (0.2% Tween-20), 30 min per wash. Blots were incubated with 1:1 mix of ECL reagents 1 & 2 (Amersham ECL Western Blotting Detection Reagent, cat. no. RPN2106) for 2 min at room temperature. Bands were visualized using a Protein Simple imager. Blots were then re-probed with a combination of anti-actin antibody (Sigma Monoclonal Mouse Anti-3-Actin (clone AC-15), cat. no. A5441) and secondary H1RP-conjugated antibody (Promega anti-Mouse IgG (H+L) HRP, cat. no. W4021) and similar steps were taken for incubation, wash, detection and visualization steps as above. The data was analyzed using Alpha View software. The densitometric reading for each sample band was normalized to that of the corresponding actin band per lane. Approximate % ITK remaining per sample was calculated as follows: […]
Once % ITK remaining has been calculated for each sample, groups are averaged together to show an means % ITK normalized to actin and relative to control.
Compounds 16, 17, and 18 were administered to mice orally. After 6 hours or 24 hours, splenocytes cells were harvested. ITK was evaluated by Western blotting. Plasma concentrations were determined by LC/MS/MS. Plasma samples were protein precipitated by addition of 100 μl of acetonitrile containing 50 ng/ml of internal standard. The resulting mixture was vortexed and centrifuged at 4000 RPM for 5 minutes. […]

SMILES | ITK degradation in vivo at 6 hours (FIG. 3A, FIG. 4A) | ITK (%) 90 mpk PO, 6 h | ITK degradation in vivo at 24 hours (FIG. 3A, FIG. 4A)
C[C@@H](C(=O)N(C)c1ccc2cc(-c3n[nH]c4c3CCC(C)(C)C4)[nH]c2c1)N1CCN(C[C@@H]2CCN(c3ccc4c(c3)n(C)c(=O)n4C3CCC(=O)NC3=O)C2)CC1 (stereo partly drawn) [Compound 4, (2S)—N-(2-(6,6-dimethyl-4,5,6,7-tetrahydro-1H-indazol-3-yl)-1H-indol-6-yl)-2-(4-(((3S)-1-(1-(2,6-dioxopiperidin-3-yl)-3-methyl-2-oxo-2,3-dihydro-1H-benzo[d]imidazol-5-yl)pyrrolidin-3-yl)methyl)piperazin-1-yl)-N-methylpropanamide] | degraded ITK in vivo | 75% | 
C[C@@]12Cc3[nH]nc(C(=O)Nc4cnn(CC5CN(C(=O)C6CN(c7ccc(C8CCC(=O)NC8=O)cn7)C6)C5)c4)c3C[C@@H]1C2(F)F (stereo partly drawn) [Compound 49, (4aS,5aR)-N-(1-((1-(1-(5-(2,6-dioxopiperidin-3-yl)pyridin-2-yl)azetidine-3-carbonyl)azetidin-3-yl)methyl)-1H-pyrazol-4-yl)-5,5-difluoro-5a-methyl-1,4,4a,5,5a,6-hexahydrocyclopropa[f]indazole-3-carboxamide] |  | 129% | 
CN(C(=O)CCC1CCN(c2ccc(C(=O)NC3CCC(=O)NC3=O)nc2)C1)c1ccc2cc(-c3n[nH]c4c3C[C@@H]3C(F)(F)[C@]3(C)C4)[nH]c2c1 (stereo partly drawn) [Compound 69, 5-(3-(3-((2-((4aS,5aR)-5,5-difluoro-5a-methyl-1,4,4a,5,5a,6-hexahydrocyclopropa[f]indazol-3-yl)-1H-indol-6-yl)(methyl)amino)-3-oxopropyl)pyrrolidin-1-yl)-N-(2,6-dioxopiperidin-3-yl)picolinamide] |  | 140% | 
Cn1c(=O)n([C@@H]2CCC(=O)NC2=O)c2cccc(N3CCC(CN4CCN(C(=O)c5ccc6cc(-c7n[nH]c8c7CCC(C)(C)C8)[nH]c6c5)CC4)CC3)c21 [Compound 48, (R)-3-(4-(4-((4-(2-(6,6-dimethyl-4,5,6,7-tetrahydro-1H-indazol-3-yl)-1H-indole-6-carbonyl)piperazin-1-yl)methyl)piperidin-1-yl)-3-methyl-2-oxo-2,3-dihydro-1H-benzo[d]imidazol-1-yl)piperidine-2,6-dione] |  | 35% | 
CN(c1ccc2cc(-c3n[nH]c4c3C[C@@H]3C(F)(F)[C@]3(C)C4)[nH]c2c1)C(=O)[C@H]1C[C@]2(CCN(c3ccc4c(c3)C(=O)N([C@H]3CCC(=O)NC3=O)C4=O)C2)C1 (racemic) [Compound 71b, (2s,4s)-N-[2-[(4aS,5aR)-5,5-difluoro-5a-methyl-1H,4H,4aH,6H-cyclopropa[f]indazol-3-yl]-1H-indol-6-yl]-6-[2-[(3RS)-2,6-dioxopiperidin-3-yl]-1,3-dioxoisoindol-5-yl]-N-methyl-6-azaspiro[3.4]octane-2-carboxamide] |  | 30% | 
C[C@@H](C(=O)N(C)c1ccc2cc(-c3n[nH]c4c3C[C@@H]3C(F)(F)[C@]3(C)C4)[nH]c2c1)N1CCN(CC2CCN(c3ccc(C4CCC(=O)NC4=O)cn3)CC2)CC1 (stereo partly drawn) [Compound 17, (2S)—N-(2-((4aS,5aR)-5,5-difluoro-5a-methyl-1,4,4a,5,5a,6-hexahydrocyclopropa[f]indazol-3-yl)-1H-indol-6-yl)-2-(4-((1-(5-(2,6-dioxopiperidin-3-yl)pyridin-2-yl)piperidin-4-yl)methyl)piperazin-1-yl)-N-methylpropanamide] | degraded ITK in vivo | 20% | degraded ITK
Cn1c(=O)n([C@H]2CCC(=O)NC2=O)c2cccc(N3CCC(CN4CCN(C(=O)c5ccc6cc(-c7n[nH]c8c7CCC(C)(C)C8)[nH]c6c5)CC4)CC3)c21 [Compound 46, (S)-3-(4-(4-((4-(2-(6,6-dimethyl-4,5,6,7-tetrahydro-1H-indazol-3-yl)-1H-indole-6-carbonyl)piperazin-1-yl)methyl)piperidin-1-yl)-3-methyl-2-oxo-2,3-dihydro-1H-benzo[d]imidazol-1-yl)piperidine-2,6-dione] |  | 102% | 
C[C@@H](C(=O)N(C)c1ccc2cc(-c3n[nH]c4c3C[C@@H]3C(F)(F)[C@]3(C)C4)[nH]c2c1)N1CCN(CC2CCN(c3ccc(N4CCC(=O)NC4=O)cn3)CC2)CC1 [Compound 18, (S)—N-(2-((4aS,5aR)-5,5-difluoro-5a-methyl-1,4,4a,5,5a,6-hexahydrocyclopropa[f]indazol-3-yl)-1H-indol-6-yl)-2-(4-((1-(5-(2,4-dioxotetrahydropyrimidin-1(2H)-yl)pyridin-2-yl)piperidin-4-yl)methyl)piperazin-1-yl)-N-methylpropanamide] | degraded ITK in vivo | 14% | degraded ITK
Cn1c(=O)n(C2CCC(=O)NC2=O)c2cccc(N3CCC(CN4CCC5(CC4)CCN(c4ccc6cc(-c7n[nH]c8c7CCC(C)(C)C8)[nH]c6c4)C5=O)CC3)c21 (centres unmarked) [Compound 13, 3-(4-(4-((2-(2-(6,6-dimethyl-4,5,6,7-tetrahydro-1H-indazol-3-yl)-1H-indol-6-yl)-1-oxo-2,8-diazaspiro[4.5]decan-8-yl)methyl)piperidin-1-yl)-3-methyl-2-oxo-2,3-dihydro-1H-benzo[d]imidazol-1-yl)piperidine-2,6-dione] | degraded ITK in vivo | 15% | 
Cn1c(=O)n(C2CCC(=O)NC2=O)c2cccc(N3CCC(CN4CCC5(CC4)CCN(c4ccc6cc(-c7n[nH]c8c7C[C@@H]7C(F)(F)[C@]7(C)C8)[nH]c6c4)C5=O)CC3)c21 (stereo partly drawn) [Compound 16, 3-(4-(4-((2-(2-((4aS,5aR)-5,5-difluoro-5a-methyl-1,4,4a,5,5a,6-hexahydrocyclopropa[f]indazol-3-yl)-1H-indol-6-yl)-1-oxo-2,8-diazaspiro[4.5]decan-8-yl)methyl)piperidin-1-yl)-3-methyl-2-oxo-2,3-dihydro-1H-benzo[d]imidazol-1-yl)piperidine-2,6-dione] | degraded ITK in vivo | 77% | 
